Data on two molecules can be found in article PMC13114161 (Antibiotics, 2026).

For one data set, the system named is P. aeruginosa. More on the design: method as in PMID 35052908, PMID 35740123. To be noted: against P. aeruginosa; cited from earlier work.
Another data set in a line: Microsomal stability. The class given is in vitro ADME, human. The settings on record: pH 7.4. As to the method: The metabolic stability of TXA11114 was evaluated in liver microsomes from human (HLM), dog (DLM), rat (RLM), and mouse (MLM). Test compound disappearance over time was monitored by LC-MS/MS. Verapamil (HLM and RLM) and imipramine (DLM and MLM) were used as positive controls. […] Aliquots (70 µL) were transferred to 96-well reaction plates and pre-incubated at 37 °C for 5 min. Reactions were initiated by adding 30 µL NADPH (final concentration 1 mM). Control incubations lacking NADPH were included to assess non-enzymatic degradation. Reactions were terminated at 0, 5, 15, 30, and 60 min by the addition of 100 µL ice-cold acetonitrile containing glipizide as an internal standard.

For data set [1], the system named is P. aeruginosa ATCC 27853. The data set is described as follows: Intracellular ATP levels. The class given is cell-based, Pseudomonas aeruginosa. To be noted: three hours post-treatment. As to the method:
Further, a deviation from normal membrane function can affect the activity of respiratory components and diminish ATP synthesis. Thus, an indirect approach to assess a drug’s membrane effect is by monitoring cellular ATP levels after treatment. To exclude ATP depletion as a TXA11114 MoA, bacterial ATP levels were evaluated three hours post-treatment. […] Azithromycin was used as a negative control.
P. aeruginosa intracellular ATP levels were determined as described previously using an ATP determination kit (Invitrogen, Life Technologies, Carlsbad, CA, USA). Bacterial culture strain ATCC 27853 was grown to the mid-log phase (OD600 = 0.7), washed, and resuspended in the same volume of PBSM (1X PBS, 1mM MgCl2). […] After treatment, the cells were lysed in chloroform which was subsequently removed by boiling at 80 °C. The persistent ATP from cell lysate was measured in a 96-well black flat-bottom plate by measuring the luminescence. Luminescence was converted to concentration from standard curve. […] Error bars represent the standard deviation of triplicates.

Another data set is described as follows: Plasma stability. The class given is in vitro ADME. To be noted: read-out: Plasma stability t1/2. How it is done:
Plasma stability was assessed by incubating the compound in plasma at 37 °C and monitoring parent compound disappearance over time by LC-MS/MS. Half-life values were calculated assuming first-order kinetics.

In data set [2] the test system is P. aeruginosa ATCC 27853. The data set can be described thus: Membrane polarization assay DiOC2(3). The class given is cell-based, Pseudomonas aeruginosa. As to the method: RND efflux pumps require an intact proton motive force across the inner membrane to mediate drug efflux. Accordingly, collapse of the membrane potential could indirectly disable efflux activity and result in apparent antibiotic potentiation. To determine whether TXA11114 dissipates the membrane potential of P. aeruginosa, membrane polarization was assessed using the fluorescent probe 3,3′-diethyloxacarbocyanine iodide (DiOC2(3)). DiOC2(3) accumulates in cells with polarized membranes, undergoing a concentration-dependent shift from green to red fluorescence due to dye stacking; membrane depolarization prevents this shift. […] CCCP and azithromycin were included as positive and negative controls, respectively. […] This discrepancy likely reflects a methodological limitation of the DiOC2(3) assay in Gram-negative bacteria. Specifically, EDTA treatment is required to transiently permeabilize the outer membrane to permit DiOC2(3) access to the cytoplasmic membrane (see Methods). While necessary for probe uptake, EDTA can sensitize cells to secondary perturbations and may exaggerate subtle fluorescence changes at supraphysiological compound concentrations.
P. aeruginosa membrane polarization assays were conducted as described previously using strain ATCC 27853. Briefly, mid-exponential phase (OD600 of 0.5) P. aeruginosa was pelleted by centrifugation at 3000× g for 10 min at room temperature. Cells were then resuspended in 1× PBS, treated with 10 mM EDTA for 5 min and then centrifuged at 300× g for 10 min to remove EDTA. EDTA-treated cells were pelleted and resuspended to an OD600 of 1.0 in assay resuspension buffer. A 6 mM DiOC2(3) stock in DMSO was added to cells for a final concentration of 30 µM. DiOC2(3)-loaded cells were then added to a 96-well black bottom microplate for a final volume of 200 µL. […] After 15 min incubation at 37 °C in dark, DiOC2(3) fluorescence was recorded using the SpectraMax iD5 spectrophotometer (Molecular Devices, San Jose, CA, USA) using 450 nm excitation. Red fluorescence intensity was recorded at 670 nm emission.

For data set [3], the system named is P. aeruginosa ATCC 27853. The data set can be described thus: Nitrocefin assay for outer-membrane permeabilization. The class given is cell-based, Pseudomonas aeruginosa. From the text:
The significant toxicity of previously identified EPIs has prevented their clinical use. So, understanding the TXA11114 mechanism of action (MoA) was of paramount importance to eliminate off-target effects that may arise from other activities besides efflux pump inhibition. Historically EPIs are known to augment the action of traditional antibiotics by compromising the integrity of bacterial membranes, allowing increased drug accumulation. One of the major concerns of earlier EPIs was their ability to disrupt bacterial membranes. Two approaches were taken to investigate if membrane disruption played a role in the potentiation of antibiotics seen in Table 2 by TXA11114: (1) a flow cytometry-based propidium iodide (PI) assay to monitor inner-membrane permeabilization, and (2) a nitrocefin (NCF) assay to monitor outer-membrane permeabilization. NCF is a chromogenic cephalosporin that changes from yellow to red when the amide bond in the β-lactam ring is hydrolyzed by a β-lactamase. The rate of hydrolysis in intact cells is slow, as it is limited by the rate of diffusion of […]. […] Cells with intact membranes exclude PI and remain non-fluorescent, while cells with compromised membrane integrity allow PI to enter and bind to DNA, resulting in fluorescence. […]

Data set [4] in a line: Plasma protein binding (equilibrium dialysis). The class given is in vitro ADME. As to the method: Plasma protein binding was determined experimentally using equilibrium dialysis, with compound concentrations in plasma and buffer quantified by LC-MS/MS.

Like-named read-outs stand apart in the source and are kept apart here. Bounds are passed on as bounds.

In the case of `NC[C@@H]1CN[C@H](CNC(=O)c2cc3ccc(-c4ccc(F)cc4)cc3[nH]2)C1` [TXA09155], in the data set on P. aeruginosa, the “Lowest concentration enhancing activity of monobactams, fluoroquinolones, sulfonamides and tetracyclines” value is 6.25 µg/mL.
Turning to `NCC(F)C[C@@H](N)CNC(=O)c1cc2ccc(-c3ccc(F)cc3)cc2[nH]1` (stereo partly drawn) [TXA11114, N-((2R)-2,5-diamino-4-fluoropentyl)-6-(4-fluorophenyl)-1H-indole-2-carboxamide], the half-life at 1 µM in the data set “Microsomal stability” (human, liver microsomes, read-out: Microsome Stability t1/2) was over 1 h; in “Microsomal stability” (human and rat liver microsomes, read-out: Microsomal stability half-life), over 1 h. The “Cellular ATP level” value in the data set with P. aeruginosa ATCC 27853 [1] is “did not result in ATP depletion”. For the same molecule, the half-life in “Plasma stability” (dog), in the data set “Plasma stability” (mouse) and in the data set “Plasma stability” (rat) was over 2 h each time. Further, in the data set with P. aeruginosa ATCC 27853 [2], the “Concentrations with modest increase in apparent depolarization” value is recorded as over 10 µg/mL. For the same molecule, the Membrane depolarization result in the data set on P. aeruginosa ATCC 27853 [2] (0.01–20 µM) was “did not induce significant membrane depolarization”. Further, the “Concentrations at which impact on NCF hydrolysis is minimal” value in the data set with P. aeruginosa ATCC 27853 [3] is recorded as “below 25 μg/mL”. Also, the fraction unbound was 0.011 in data set [4] (dog); 0.01 to 0.02 in data set [4] (human, across the four species tested, read-out: Plasma protein binding); 0.01 in data set [4] (human, read-out: Protein Binding); 0.011 in data set [4] (mouse); 0.015 in data set [4] (rat).
